From BindingDB's records for doi:10.1016/j.ejmech.2016.05.062 (University of Siena, 2016)

What was measured:
[1] = Activity at Smo in mouse C3H10T1/2 cells assessed as induction of cell differentiation into osteoblast incubated for 6 days by alkaline phosphatase assay
[2] = Agonist activity at Smo in mouse C3H10T1/2 cells assessed as induction of cell differentiation into osteoblast incubated for 6 days by alkaline phosphatase assay

SMILES | EC50 [1] [nM] | EC50 [2] [nM]
CCCCCCn1c(=O)c(C(=O)Nc2ccc(C(=O)OCCCC)cc2)c(O)c2ccccc21 | 1500 | –
CCCCCCn1c(=O)c(C(=O)Nc2ccc(C(=O)OC(C)(C)C)cc2)c(O)c2ccccc21 | 3100 | –
CCCCCn1c(=O)c(C(=O)Nc2ccc(C(=O)OCC)cc2)c(O)c2ccccc21 | 900 | –
C=CCn1c(=O)c(C(=O)Nc2ccc(C(=O)OCCC)cc2)c(O)c2ccccc21 | 3400 | –
CCCCn1c(=O)c(C(=O)Nc2ccc(C(=O)OCCC)cc2)c(O)c2ccccc21 | 800 | –
CCCCCn1c(=O)c(C(=O)Nc2ccc(C(=O)OCCCC)cc2)c(O)c2ccccc21 | 600 | –
CCCCCCn1c(=O)c(C(=O)Nc2ccc(C(=O)O)cc2)c(O)c2ccccc21 | 600 | –
CCCCCn1c(=O)c(C(=O)Nc2ccc(C(=O)OCCC)cc2)c(O)c2ccccc21 | 700 | –
CCCOC(=O)c1ccc(NC(=O)c2c(O)c3ccccc3n(CCC)c2=O)cc1 | 2600 | –
c1ccc2c(Oc3nc(Nc4ccc(N5CCOCC5)cc4)c4ncn(C5CCCCC5)c4n3)cccc2c1 [Purmorphamine] | 800 | –
CCCOC(=O)c1ccc(NC(=O)c2c(O)c3cccc4c3n(c2=O)CCC4)cc1 | 800 | –
CCCCCCn1c(=O)c(C(=O)Nc2ccc(C(=O)NCCCC)cc2)c(O)c2ccccc21 | 5800 | –
CCCCCCn1c(=O)c(C(=O)Nc2ccc(C(=O)OCC)cc2)c(O)c2ccccc21 | 3600 | –
CCCOC(=O)c1ccc(NC(=O)c2c(O)c3cc(Cl)ccc3n(CCC)c2=O)cc1 | 4900 | –
CCCCCCn1c(=O)c(C(=O)Nc2ccc(C(=O)OCc3ccccc3)cc2)c(O)c2ccccc21 | 2000 | –
CCCOC(=O)c1ccc(NC(=O)c2c(O)c3cc(F)ccc3n(CCC)c2=O)cc1 | 2400 | –
CCCCCCn1c(=O)c(C(=O)Nc2ccc(C(=O)OC(C)C)cc2)c(O)c2ccccc21 | 6500 | –
CCCCCCn1c(=O)c(C(=O)Nc2ccc(C(=O)OCCC)cc2)c(O)c2ccccc21 | 1200 | –
CCCOC(=O)c1ccc(NC(=O)c2c(O)c3cc(C)ccc3n(CCC)c2=O)cc1 | 1200 | –
CCCOC(=O)c1ccc(NC(=O)c2c(O)c3cc(OC)c(OC)cc3n(CCC)c2=O)cc1 | 360 | –
CNC1CCC(N(Cc2cccc(-c3ccncc3)c2)C(=O)c2sc3ccccc3c2Cl)CC1 (stereo unspecified) | – | 130
